Laboratory results published in article PMC9499365, “Stereoselective Synthesis and Application of Gibberellic Acid-Derived Aminodiols” (International Journal of Molecular Sciences, 2022).

Experiments:
[1] = test system: HeLa cells (cervical cancer); assay: MTT antiproliferative assay, HeLa; type: cell-based, human; conditions: 72 h; for inhibition at 10 µM / inhibition at 30 µM: read-out: Growth inhibition (%) ± SEM
Outline: (§1)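 Cells seeded overnight, then exposed to compound at 10 µM and 30 µM for 72 h at 37 °C, 5% CO2. Growth inhibition read by MTT (4 h), formazan dissolved in DMSO, absorbance at 545 nm versus untreated controls; two independent experiments, five wells each.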

[2] = test system: SiHa cells (cervical cancer); assay: MTT antiproliferative assay, SiHa; type: cell-based, human; conditions: 72 h; for inhibition at 10 µM / inhibition at 30 µM: read-out: Growth inhibition (%) ± SEM
Outline: as §1

[3] = test system: MDA-MB-231 cells (breast cancer); assay: MTT antiproliferative assay, MDA-MB-231; type: cell-based, human; conditions: for inhibition at 10 µM / inhibition at 30 µM / Growth inhibition (%) ± SEM: 72 h; for inhibition at 10 µM / inhibition at 30 µM: read-out: Growth inhibition (%) ± SEM; for IC50: MDA-MB-231, 72 h
Outline: as §1

[4] = test system: A2780 ovarian cancer cells; assay: MTT antiproliferative assay, A2780; type: cell-based, human; conditions: for inhibition at 10 µM / inhibition at 30 µM / Growth inhibition (%) ± SEM: 72 h; for inhibition at 10 µM / inhibition at 30 µM: read-out: Growth inhibition (%) ± SEM; for IC50: A2780, 72 h
Outline: as §1

[5] = DPPH free radical scavenging assay; conditions: for DPPH scavenging activity: concentration range 3–100 µM
Procedure: As a consequence, in vitro antioxidant activities of selected N-aliphatic- and N-aryl-substituted aminodiols were determined by 1,1-diphenyl-2-picrylhydrazyl (DPPH) assay.
The antioxidant effects of the aminodiol derivatives were tested on 1,1-diphenyl-2-picrylhydrazyl (DPPH) radicals according to Brand-Williams (1995) [55] and Sánchez-Moreno (2002) [56], with some modifications. […] After a 30 min incubation period at room temperature (25 °C) the absorbances were measured at 517 nm by a microplate reader (SPECTROStar Nano, BMG Labtech, Offenburg, Germany). Trolox (3,4-Dihydro-6-hydroxy-2,5,7,8-tetramethyl-2H-1-benzopyran-2-carboxylic acid) was used as a positive control. All measurements were performed in duplicate with 5 parallels.

[6] = test system: NIH/3T3 mouse embryo fibroblast cells; assay: MTT assay on non-cancerous fibroblasts (cancer selectivity); type: cell-based; conditions: for IC50: NIH/3T3, 72 h; for cancer selectivity (cancer cells vs NIH/3T3 fibroblasts), words: comparison of IC50 on fibroblasts and malignant cell lines
Procedure: The in vitro antiproliferative activities of the synthesized aminodiols 4–38 against a panel of different human cancer cell lines of gynecological origin, including cervical (SiHA and HeLa), breast (MCF7 and MDA-MB-231), and ovary (A2780) cancers were assayed by the MTT method. […] Cisplatin, a clinically applied anticancer agent, was used as a reference compound and the results are summarized in Figure 3 and Table S1 in Supporting Information. […] On the other hand, none of the prepared azole derivatives exerted relevant activity.
The growth-inhibitory effects of the gibberellic acid-based aminodiol derivatives were determined by a standard MTT (3-(4,5-dimethylthiazol-2-yl)-2,5-diphenyltetrazolium bromide) assay on a panel containing five cell lines, including Hela and Siha (cervical cancers); MDA-MB-231 and MCF-7 (breast cancers); and A2780 ovarian cancer cells. The most promising agents were additionally tested against NIH/3T3 mouse embryo fibroblast cells. All cell lines were purchased from the European Collection of Cell Cultures (Salisbury, UK) except SiHa, which was obtained from the American Tissue Culture Collection (Manassas, VA, USA). The cells were maintained in minimal essential medium supplemented with 10% fetal bovine serum, 1% non-essential amino acids, and 1% penicillin-streptomycin at 37 °C in a humidified atmosphere containing 5% CO2. All media and supplements were obtained from Lonza Group Ltd., (Basel, Switzerland). Cancer cells were seeded into 96-well plates (5000 cells/well), after an overnight incubation the test compound was added in 2 different concentrations (10 µM and 30 µM) and incubated for another 72 h under cell-culturing conditions. Then, 20 μL of 5 mg/mL MTT solution was added to each well and incubated for a further 4 h. The medium was removed, and the precipitated formazan crystals were dissolved in DMSO during 60 min of shaking at 37 °C. As the final step, the absorbance was measured at 545 nm by using a microplate reader (SPECTROStar Nano, BMG Labtech, Offenburg, Germany). Untreated cells were included as controls. […] These agents were additionally tested against NIH/3T3 fibroblasts to obtain results about their cancer selectivity. Two independent experiments were performed with five wells for each condition. Cisplatin (Ebewe GmbH, Unterach, Austria), a clinically used anticancer agent, was used as a positive control. Calculations were performed utilizing the GraphPad Prism 5.01 software (GraphPad Software Inc., San Diego, CA, USA).

[7] = Homo sapiens, MDA-MB-231, 10 μM
[8] = Homo sapiens, MDA-MB-231, 30 μM

Row | SMILES | inhibition at 10 µM ([1]; Homo sapiens, 10 μM) [%] | inhibition at 30 µM ([1]; Homo sapiens, 30 μM) [%] | inhibition at 10 µM ([2]; Homo sapiens, 10 μM) [%] | inhibition at 30 µM ([2]; Homo sapiens, 30 μM) [%] | inhibition at 10 µM [3, 7] [%] | inhibition at 30 µM [3, 8] [%] | inhibition at 10 µM ([4]; Homo sapiens, A2780, 10 μM) [%] | inhibition at 30 µM ([4]; Homo sapiens, A2780, 30 μM) [%] | DPPH scavenging activity [5] | melting point [°C] | also measured
1 | CCOC(=O)[C@H]1c2c(C)cccc2[C@H]2CC[C@]3(O)C[C@@]21C[C@]3(O)CN(C)Cc1ccccc1 [Compound 16, Ethyl (4bS,7S,8S,9aR,10R)-8-((benzyl(methyl)amino)methyl)-7,8-dihydroxy-1-methyl-4b,6,7,8,9,10-hexahydro-5H-7,9a-methanobenzo[a]azulene-10-carboxylate] | < 20 | 36 ± 2.89 | < 20 | 23 ± 0.39 | < 20 | 25 ± 0.99 | < 20 | 21.6 ± 0.85 | None of the six molecules elicited considerable activity | 94 to 95 | 
2 | CCOC(=O)[C@H]1c2c(C)cccc2[C@H]2CC[C@]3(O)C[C@@]21C[C@]3(O)CN[C@@H](C)c1ccc2ccccc2c1 [Compound 12] |  |  |  |  |  |  |  |  | None of the six molecules elicited considerable activity |  | Growth inhibition (%) ± SEM ([1]; 10 μM): 97.69 ± 0.28%; Growth inhibition (%) ± SEM ([1]; 30 μM): 97.62 ± 0.55%; IC50 [1]: 4.14 ± 0.38 µM; Growth inhibition (%) ± SEM ([2]; 10 μM): 97.41 ± 0.15%; Growth inhibition (%) ± SEM ([2]; 30 μM): 97.06 ± 0.20%; IC50 [2]: 4.17 ± 0.32 µM; Growth inhibition (%) ± SEM ([3]; MDA-MB-231, 10 μM): 95.00 ± 0.69%; Growth inhibition (%) ± SEM ([3]; MDA-MB-231, 30 μM): 93.72 ± 0.88%; IC50 [3]: 7.19 ± 1.48 µM; Growth inhibition (%) ± SEM ([4]; A2780, 10 μM): 96.29 ± 0.59%; Growth inhibition (%) ± SEM ([4]; A2780, 30 μM): 96.28 ± 0.82%; IC50 [4]: 5.45 ± 0.31 µM; Growth inhibition (%) ± SEM ([6]; NIH/3T3, 10 μM, 72 h): 90.43 ± 0.15%; Growth inhibition (%) ± SEM ([6]; NIH/3T3, 30 μM, 72 h): 91.03 ± 0.05%; IC50 [6]: 4.57 ± 0.23 µM; cancer selectivity (cancer cells vs NIH/3T3 fibroblasts), words [6]: inhibited the growth of cancer cells and fibroblasts in the same concentration range
3 | N.N.[Cl][Pt][Cl] [Cisplatin, reference compound] |  |  |  |  |  |  |  |  |  |  | Growth inhibition (%) ± SEM ([1]; 10 μM): 42.61 ± 2.33%; Growth inhibition (%) ± SEM ([1]; 30 μM): 99.93 ± 0.26%; IC50 [1]: 12.4 µM; Growth inhibition (%) ± SEM ([2]; 10 μM): 88.64 ± 0.50%; Growth inhibition (%) ± SEM ([2]; 30 μM): 90.18 ± 1.78%; IC50 [2]: 7.84 µM; Growth inhibition (%) ± SEM ([3]; MDA-MB-231, 10 μM): 67.51 ± 1.01%; Growth inhibition (%) ± SEM ([3]; MDA-MB-231, 30 μM): 87.75 ± 1.10%; IC50 [3]: 3.74 µM; Growth inhibition (%) ± SEM ([4]; A2780, 10 μM): 83.57 ± 1.21%; Growth inhibition (%) ± SEM ([4]; A2780, 30 μM): 95.02 ± 0.28%; IC50 [4]: 1.3 µM; Growth inhibition (%) ± SEM ([6]; NIH/3T3, 10 μM, 72 h): 73.88 ± 1.63%; Growth inhibition (%) ± SEM ([6]; NIH/3T3, 30 μM, 72 h): 97.10 ± 0.15%; IC50 [6]: 5.49 µM
4 | CCOC(=O)[C@H]1c2c(C)cccc2[C@H]2CC[C@]3(O)C[C@@]21C[C@]3(O)Cn1nnc2ccccc21 [Compound 30, Ethyl (4bS,7S,8S,9aR,10R)-8-((1H-benzo[d][1,2,3]triazol-1-yl)methyl)-7,8-dihydroxy-1-methyl-4b,6,7,8,9,10-hexahydro-5H-7,9a-methanobenzo[a]azulene-10-carboxylate] | < 20 | < 20 | < 20 | 29.5 ± 2 | < 20 | < 20 | < 20 | 26.8 ± 3.79 | None of the six molecules elicited considerable activity |  | 
5 | CCOC(=O)[C@H]1c2c(C)cccc2[C@H]2CC[C@]3(O)C[C@@]21C[C@]3(O)CN [Compound 25, Ethyl (4bS,7S,8S,9aR,10R)-8-(aminomethyl)-7,8-dihydroxy-1-methyl-4b,6,7,8,9,10-hexahydro-5H-7,9a-methanobenzo[a]azulene-10-carboxylate] | < 20 | < 20 | < 20 | < 20 | < 20 | < 20 | < 20 | < 20 | None of the six molecules elicited considerable activity | 92 to 94 | 
6 | CCOC(=O)[C@H]1c2c(C)cccc2C2CC[C@]3(O)C[C@@]21C[C@]3(O)CN[C@H](C)c1cccc2ccccc12 (stereo partly drawn) [Compound 14, Ethyl (7S,8S,9aR,10R)-7,8-dihydroxy-1-methyl-8-((((R)-1-(naphthalen-1-yl)ethyl)amino)methyl)-4b,6,7,8,9,10-hexahydro-5H-7,9a-methanobenzo[a]azulene-10-carboxylate] | 98.08 ± 0.19 | 97.4 ± 0.34 | 96.3 ± 2.13 | 97.84 ± 0.42 | 96.57 ± 0.37 | 96.77 ± 0.16 | 96.53 ± 0.73 | 95.9 ± 1.06 | None of the six molecules elicited considerable activity |  | IC50 ([1]; Homo sapiens): 4.66 ± 0.21 µM; IC50 ([2]; Homo sapiens): 5.25 ± 0.86 µM; IC50 ([3]; Homo sapiens): 8.04 ± 0.61 µM; IC50 ([4]; Homo sapiens): 5.15 ± 0.28 µM; inhibition at 10 µM ([6]; Mus musculus, NIH3T3, NIH/3T3, 10 μM, 72 h, read-out: Growth inhibition (%) ± SEM): 88.6 ± 0.97%; inhibition at 30 µM ([6]; Mus musculus, NIH3T3, NIH/3T3, 30 μM, 72 h, read-out: Growth inhibition (%) ± SEM): 88.7 ± 0.98%; IC50 ([6]; Mus musculus, NIH3T3): 5.02 ± 0.26 µM; cancer selectivity (cancer cells vs NIH/3T3 fibroblasts), words [6]: inhibited the growth of cancer cells and fibroblasts in the same concentration range
7 | Cc1c(C)c2c(c(C)c1O)CCC(C)(C(=O)O)O2 (stereo not shown) [Trolox, 3,4-Dihydro-6-hydroxy-2,5,7,8-tetramethyl-2H-1-benzopyran-2-carboxylic acid, reference compound] |  |  |  |  |  |  |  |  |  |  | IC50 ([5]; 0.1 mM DPPH, 30 min, 25 °C): 20.2 µM
8 | CCOC(=O)[C@H]1c2c(C)cccc2[C@H]2CC[C@]3(O)C[C@@]21C[C@]3(O)CN[C@@H](CC)c1ccccc1 [Compound 8, Ethyl (4bS,7S,8S,9aR,10R)-7,8-dihydroxy-1-methyl-8-((((S)-1-phenylpropyl)amino)methyl)-4b,6,7,8,9,10-hexahydro-5H-7,9a-methanobenzo[a]azulene-10-carboxylate] | 27.5 ± 0.41 | 98.05 ± 0.07 | 29.7 ± 1.54 | 98.38 ± 0.44 | < 20 | 97.52 ± 0.67 | 39.5 ± 1.27 | 96.38 ± 0.13 |  | 114 to 115 | 
